# Measured values published in article PMC8766756, “Insights on Cancer Cell Inhibition, Subcellular Activities, and Kinase Profile of Phenylacetamides Pending 1H-Imidazol-5-One Variants” (Frontiers in Pharmacology, 2022).
# Where “and” joins values, the source holds several entries; their conditions need not be identical. Equal values may be shown once.
# Columns and labels:
# [1] = system: HL60 cells; test: Cell cycle analysis by flow cytometry; type: cell-based, human; settings: HL60, 1 µM, 48 h, vs untreated control
# Procedure: The cell cycle analysis of the HL60 cells after treatment was performed with 1 µM of KIM-161 by using flow cytometry.
# The cells (3.5 × 10^5/well) were incubated with 1 µM 4c (KIM-161) at 37°C for 48 h. Subsequently, the cells were collected and washed twice with ice-cold PBS (1X). The washed cells were fixed on ice for 20 min using a fixation buffer containing paraformaldehyde. Hoechst 33342 (10 μg/ml; Thermo Fisher Scientific, Inc.) was used for staining. The cells were then incubated in the dark for 30 min on ice. A minimum total of 20,000 events were acquired using a BD FACSAria III flow cytometer. Flowlogic version 7.2.1 software (Inivai Technologies, Victoria, Australia) was used to obtain the percentages of cells in the G1, S, and G2/M phases in the singlet-gated population.
# [2] = target: T1, Ret (P07949) (Homo sapiens, UniProt P07949); test: PamChip tyrosine kinase microarray; type: biochemical; settings: 0.1 µM, HL60 lysate
# T1 construct: purchased PamGene (PamChip PTK array, Upstream Kinase Analysis)
# T1 sequence (P07949 29-1114): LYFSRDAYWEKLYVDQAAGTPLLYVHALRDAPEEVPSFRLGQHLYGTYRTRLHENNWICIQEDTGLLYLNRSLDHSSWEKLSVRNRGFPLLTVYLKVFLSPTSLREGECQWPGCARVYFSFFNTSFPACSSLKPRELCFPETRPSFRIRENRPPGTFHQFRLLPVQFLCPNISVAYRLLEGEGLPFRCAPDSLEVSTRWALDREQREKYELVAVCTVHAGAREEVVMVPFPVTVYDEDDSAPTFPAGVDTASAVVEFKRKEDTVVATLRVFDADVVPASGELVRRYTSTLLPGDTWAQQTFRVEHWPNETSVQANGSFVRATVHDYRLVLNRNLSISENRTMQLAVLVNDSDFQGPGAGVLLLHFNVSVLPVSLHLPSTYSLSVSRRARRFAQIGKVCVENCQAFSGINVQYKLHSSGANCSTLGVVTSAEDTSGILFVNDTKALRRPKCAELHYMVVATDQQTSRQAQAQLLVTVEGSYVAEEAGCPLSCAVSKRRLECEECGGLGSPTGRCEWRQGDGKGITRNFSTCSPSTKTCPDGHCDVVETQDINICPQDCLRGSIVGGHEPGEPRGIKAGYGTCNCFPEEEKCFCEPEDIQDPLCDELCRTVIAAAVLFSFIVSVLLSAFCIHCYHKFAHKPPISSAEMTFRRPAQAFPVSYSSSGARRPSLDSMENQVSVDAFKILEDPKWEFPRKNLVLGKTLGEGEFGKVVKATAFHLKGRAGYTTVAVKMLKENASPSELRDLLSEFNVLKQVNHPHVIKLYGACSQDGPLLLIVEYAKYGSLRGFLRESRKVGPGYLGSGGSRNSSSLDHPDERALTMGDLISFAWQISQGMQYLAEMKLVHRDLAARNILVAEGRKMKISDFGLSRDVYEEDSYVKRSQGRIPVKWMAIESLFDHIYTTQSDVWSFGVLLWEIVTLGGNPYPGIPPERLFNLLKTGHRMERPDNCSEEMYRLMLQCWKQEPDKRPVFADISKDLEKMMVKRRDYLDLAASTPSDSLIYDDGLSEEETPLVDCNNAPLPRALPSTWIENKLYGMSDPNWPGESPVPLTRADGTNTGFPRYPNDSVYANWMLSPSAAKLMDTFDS
# Procedure: (§1) The reproducible high potency of KIM-161 on leukemia cell lines was initially speculated to encompass Src tyrosine kinase inhibition. Even so, we also suspected that KIM-161 might be affecting other tyrosine kinases because the HL60 cells are not among the most Src-dependent highly proliferative cells ([Collins, 1987]). Therefore, a profiling of the kinase activities was performed after treatment with KIM-161 using PamChip® tyrosine kinase microarray. This analysis is based on incubation of cell lysate with 3D microarray that projects peptides specific for 143 tyrosine kinases. If a kinase is modified in the cells, it will be detected by phosphorylating its specific peptide in the microarray.
# (§2) This test measured the activities of an array of tyrosine kinases of treated HL60 cells compared to the control (untreated cells) after incubation with KIM-161 for 48 h at concentrations of 0.001, 0.01, 0.1, 1.0, 10, and 50 µM. The log fold change (LFC) heat map was initially used to identify significant peptides affected at each concentration (Figure 5).
# (§3) An Upstream Kinase Tool was used to generate a putative list of kinases responsible for phosphorylating the phosphosites on the PamChip®. It is an interpretation and is highly dependent on the contents of the underlying phosphorylation databases. Kinase score (Table 2) was used for ranking kinases based on their significance and specificity in terms of the set of peptides used for the corresponding kinase. Kinase statistics indicates the overall change of the peptide set that represents a certain kinase. Kinase statistics value of <0 indicates lower kinase activity in the lysate spiked with the compound and vice versa. Table 2 lists the 20 most changed kinases within treated HL60 cell lysates by 0.1 μM KIM-161.
# (§4) Every compound had spiked into a leukemic (AML) cell line HL60 lysate at different concentrations (0.001, 0.01, 0.1, 1, 10, and 50 μM). In addition, DMSO had also spiked at a low concentration (2% v/v) to the HL60 lysate as the control. The samples were profiled on PamGene's tyrosine kinase (PTK) arrays in technical replicates, covering a total of 196 phosphorylation sites. The frozen leukemic HL60 cultured cell pellet was sent to PamGene. At PamGene, the cells were lysed in the presence of the lysis buffer and proteases inhibitor cocktail. The protein concentration was measured using the standard Bradford assay as per the PamGene SOPs. These lysates were further used for generating the PTK activity profiles. For spiking, KIM-161 was received in powder form and dissolved in DMSO at the PamGene facility, followed by storing it at −20°C in small aliquots. PamGene used its in-house bioinformatics toolbox in combination with other methods to generate the hypotheses of signaling pathways.
# [3] = target: T2, JAK1~b (P23458) (Homo sapiens, UniProt P23458); test: PamChip tyrosine kinase microarray; type: biochemical; settings: 0.1 µM, HL60 lysate
# T2 construct: JAK1~b (P23458); purchased PamGene (PamChip PTK array, Upstream Kinase Analysis)
# T2 sequence (P23458 whole entry): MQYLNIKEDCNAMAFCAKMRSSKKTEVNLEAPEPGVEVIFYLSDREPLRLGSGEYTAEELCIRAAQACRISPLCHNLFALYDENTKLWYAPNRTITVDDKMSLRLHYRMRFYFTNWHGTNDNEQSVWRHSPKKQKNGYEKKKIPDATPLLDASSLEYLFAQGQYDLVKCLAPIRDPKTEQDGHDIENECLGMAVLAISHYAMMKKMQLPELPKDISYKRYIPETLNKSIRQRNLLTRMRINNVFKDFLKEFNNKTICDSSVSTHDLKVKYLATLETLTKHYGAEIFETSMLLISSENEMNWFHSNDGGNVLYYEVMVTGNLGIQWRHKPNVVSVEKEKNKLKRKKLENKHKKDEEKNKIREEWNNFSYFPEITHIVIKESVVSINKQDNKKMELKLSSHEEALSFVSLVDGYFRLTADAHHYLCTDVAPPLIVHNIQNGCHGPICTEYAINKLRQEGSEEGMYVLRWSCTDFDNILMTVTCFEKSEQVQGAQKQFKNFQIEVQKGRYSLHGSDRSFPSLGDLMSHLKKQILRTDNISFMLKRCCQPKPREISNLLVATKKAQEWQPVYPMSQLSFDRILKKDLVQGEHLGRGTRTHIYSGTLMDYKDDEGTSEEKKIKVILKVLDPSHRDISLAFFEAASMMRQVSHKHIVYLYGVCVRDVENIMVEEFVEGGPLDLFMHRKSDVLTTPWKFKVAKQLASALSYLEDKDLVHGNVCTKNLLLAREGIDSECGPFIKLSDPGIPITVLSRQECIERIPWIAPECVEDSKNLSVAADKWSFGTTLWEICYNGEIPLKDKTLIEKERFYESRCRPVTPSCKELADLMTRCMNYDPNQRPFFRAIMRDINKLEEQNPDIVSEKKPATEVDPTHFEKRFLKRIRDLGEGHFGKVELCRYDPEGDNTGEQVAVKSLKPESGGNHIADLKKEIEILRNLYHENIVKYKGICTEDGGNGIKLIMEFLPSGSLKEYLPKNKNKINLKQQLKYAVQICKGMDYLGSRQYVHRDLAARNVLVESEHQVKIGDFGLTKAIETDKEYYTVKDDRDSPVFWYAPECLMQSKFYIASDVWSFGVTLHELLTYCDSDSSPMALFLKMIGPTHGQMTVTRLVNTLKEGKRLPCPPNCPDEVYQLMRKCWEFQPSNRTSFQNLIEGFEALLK
# Procedure: as §1, §2, §3, §4
# [4] = target: T3, FAK1 (Q05397) (Homo sapiens, UniProt Q05397); test: PamChip tyrosine kinase microarray; type: biochemical; settings: 0.1 µM, HL60 lysate
# T3 construct: purchased PamGene (PamChip PTK array, Upstream Kinase Analysis)
# Procedure: as §1, §2, §3, §4
# [5] = target: T4, EphA5 (P54756) (Homo sapiens, UniProt P54756); test: PamChip tyrosine kinase microarray; type: biochemical; settings: 0.1 µM, HL60 lysate
# T4 construct: purchased PamGene (PamChip PTK array, Upstream Kinase Analysis)
# T4 sequence (P54756 25-1037): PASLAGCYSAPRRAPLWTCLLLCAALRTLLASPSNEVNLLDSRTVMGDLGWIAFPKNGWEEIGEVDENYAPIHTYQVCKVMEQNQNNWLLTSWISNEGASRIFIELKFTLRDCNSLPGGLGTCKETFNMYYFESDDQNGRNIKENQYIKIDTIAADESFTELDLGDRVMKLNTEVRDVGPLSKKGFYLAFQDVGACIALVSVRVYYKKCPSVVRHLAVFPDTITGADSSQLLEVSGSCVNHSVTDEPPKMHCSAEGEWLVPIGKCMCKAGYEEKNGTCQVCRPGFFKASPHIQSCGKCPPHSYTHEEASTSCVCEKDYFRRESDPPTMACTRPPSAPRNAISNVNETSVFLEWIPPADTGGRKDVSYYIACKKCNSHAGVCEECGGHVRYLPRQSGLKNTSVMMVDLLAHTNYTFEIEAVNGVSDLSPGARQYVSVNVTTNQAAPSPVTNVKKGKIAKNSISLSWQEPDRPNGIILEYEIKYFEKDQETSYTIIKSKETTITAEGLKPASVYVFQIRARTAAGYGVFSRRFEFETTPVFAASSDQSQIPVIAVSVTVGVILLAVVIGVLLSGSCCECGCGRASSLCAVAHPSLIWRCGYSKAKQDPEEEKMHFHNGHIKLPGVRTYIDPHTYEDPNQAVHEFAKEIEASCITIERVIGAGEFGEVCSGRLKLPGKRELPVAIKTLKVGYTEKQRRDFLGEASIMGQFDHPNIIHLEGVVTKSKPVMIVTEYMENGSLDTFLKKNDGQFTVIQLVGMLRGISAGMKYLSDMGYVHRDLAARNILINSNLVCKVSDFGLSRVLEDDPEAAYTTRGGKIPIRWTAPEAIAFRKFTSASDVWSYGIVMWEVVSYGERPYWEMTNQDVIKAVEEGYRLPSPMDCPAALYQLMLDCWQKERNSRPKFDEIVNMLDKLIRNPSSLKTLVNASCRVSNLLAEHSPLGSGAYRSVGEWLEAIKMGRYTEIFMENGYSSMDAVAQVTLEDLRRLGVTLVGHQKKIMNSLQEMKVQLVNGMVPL
# Procedure: as §1, §2, §3, §4
# [6] = target: T5, FGFR4 (P22455) (Homo sapiens, UniProt P22455); test: PamChip tyrosine kinase microarray; type: biochemical; settings: 0.1 µM, HL60 lysate
# T5 construct: purchased PamGene (PamChip PTK array, Upstream Kinase Analysis)
# Procedure: as §1, §2, §3, §4
# [7] = target: T6, Tyk2 (P29597) (Homo sapiens, UniProt P29597); test: PamChip tyrosine kinase microarray; type: biochemical; settings: 0.1 µM, HL60 lysate
# T6 construct: purchased PamGene (PamChip PTK array, Upstream Kinase Analysis)
# T6 sequence (P29597 whole entry): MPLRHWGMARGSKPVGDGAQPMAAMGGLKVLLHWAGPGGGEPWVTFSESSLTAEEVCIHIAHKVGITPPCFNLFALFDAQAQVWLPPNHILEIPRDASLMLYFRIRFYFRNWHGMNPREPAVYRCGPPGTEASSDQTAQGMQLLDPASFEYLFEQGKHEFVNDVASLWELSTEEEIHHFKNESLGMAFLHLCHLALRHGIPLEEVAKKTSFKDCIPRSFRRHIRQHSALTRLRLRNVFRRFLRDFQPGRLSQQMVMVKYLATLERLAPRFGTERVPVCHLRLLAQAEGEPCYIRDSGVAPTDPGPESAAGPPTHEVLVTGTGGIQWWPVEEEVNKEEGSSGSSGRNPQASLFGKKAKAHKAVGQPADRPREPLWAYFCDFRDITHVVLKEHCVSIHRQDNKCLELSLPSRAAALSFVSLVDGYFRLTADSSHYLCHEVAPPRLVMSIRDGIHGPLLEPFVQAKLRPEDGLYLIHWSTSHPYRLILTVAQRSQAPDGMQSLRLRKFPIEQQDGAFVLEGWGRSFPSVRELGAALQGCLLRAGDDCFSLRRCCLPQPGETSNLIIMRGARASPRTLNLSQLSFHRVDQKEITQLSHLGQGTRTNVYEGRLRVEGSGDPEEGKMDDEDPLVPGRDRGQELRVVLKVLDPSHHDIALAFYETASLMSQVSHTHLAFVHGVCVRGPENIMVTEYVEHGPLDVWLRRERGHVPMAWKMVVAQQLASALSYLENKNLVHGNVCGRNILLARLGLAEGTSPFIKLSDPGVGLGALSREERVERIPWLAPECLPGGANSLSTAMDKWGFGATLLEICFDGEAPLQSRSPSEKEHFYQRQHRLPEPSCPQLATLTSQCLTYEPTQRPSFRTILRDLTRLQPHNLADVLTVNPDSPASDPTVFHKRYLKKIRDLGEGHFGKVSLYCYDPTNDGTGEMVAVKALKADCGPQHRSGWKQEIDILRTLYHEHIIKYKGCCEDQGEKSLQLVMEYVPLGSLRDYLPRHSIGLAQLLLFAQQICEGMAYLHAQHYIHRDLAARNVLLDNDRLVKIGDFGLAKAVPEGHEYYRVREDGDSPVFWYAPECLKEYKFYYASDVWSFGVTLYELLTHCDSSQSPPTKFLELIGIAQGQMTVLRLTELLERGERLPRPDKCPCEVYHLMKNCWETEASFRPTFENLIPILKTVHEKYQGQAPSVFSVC
# Procedure: as §1, §2, §3, §4
# [8] = Stability in mouse liver microsomes; type: in vitro ADME
# Procedure: The clearance of KIM-161 in MLM or HLM was determined at 37°C as previously described ([Yang et al., 2007]). Both MLM and HLM were obtained from Merck KGaA (Darmstadt, Germany), Cat. No. M9441 (MLM) and M0317 (HLM). The assays were conducted in triplicate in 96-well deep polypropylene plates. […] At five time points, the reaction mixture aliquots were transferred to 96-shallow well stop plates on ice containing acetonitrile with 0.1 µM propafenone. […] The standard curves for the test compound were generated using five concentrations in triplicate that were processed as above but with zero incubation time. The stop plates were centrifuged at 2000g for 10 min, and then, the supernatant aliquots were transferred to a Waters Aquity® UPLC 700 µL 96-well sample plate with cap mat (Waters, Milford, MA). The amount of the compound remaining in the supernatant was quantified by LC/MS/MS using a Waters Xevo TQ MS (electrospray positive mode) coupled to a Waters Aquity® UPLC (BEH column, C18). Propafenone was used as the internal standard. GraphPad® Prism v.5.04 was used for nonlinear fitting of time course data to generate t1/2 values.
smiles,measurement,setting,value
"COc1ccc(/C=C2\N=C(C)N(c3ccc(CC(=O)NCc4ccccc4)cc3)C2=O)cc1 [Compound 4c, (Z)-N-Benzyl-2-(4-(4-(4-methoxybenzylidene)-2-methyl-5-oxo-4,5-dihydro-1H-imidazol-1-yl)phenyl)acetamide]",Cell cycle distribution: G0/G1 phase,[1],decrease in the G0/G1 phase
same,Cell cycle distribution: G2/M phase,[1],increased the population of cells in the G2/M phase
same,Cell cycle distribution: PreG phase,[1],accumulate in PreG phase
same,Cell cycle distribution: S phase,[1],no difference is seen in cell population in the S phase
same,Mean Significance Score,[2],2.048
same,Mean Specificity Score,[2],1.108
same,Mean Final score (Kinase score),[2]; listed as KIM-161,3.14 and 3.143
same,Mean Significance Score,[3],1.955
same,Mean Specificity Score,[3],1.609
same,Mean Final score (Kinase score),[3]; listed as KIM-161,3.51 and 3.514
same,Mean Final score (Kinase score),[4],2.506
same,Mean Kinase Statistic,[4],-1.237
same,Mean Significance Score,[4],2.048
same,Mean Specificity Score,[4],0.5313
same,Mean Final score (Kinase score),[5],2.0125
same,Mean Kinase Statistic,[5],-1.181
same,Mean Significance Score,[5],1.675
same,Mean Specificity Score,[5],0.3238
same,Mean Significance Score,[6],2.023
same,Mean Specificity Score,[6],0.5516
same,Mean Final score (Kinase score),[6]; listed as KIM-161,2.73 and 2.7333
same,Mean Final score (Kinase score),[7],2.4437
same,Mean Kinase Statistic,[7],-1.248
same,Mean Significance Score,[7],2.048
same,Mean Specificity Score,[7],0.3814
same,MLM stability,"[8]; mouse liver microsomes, 37°C, t1/2",14.8 min
same,% Remaining in MLM with NADPH,"[8]; with NADPH, >60 min, listed as KIM-161",unchanged
same,% Remaining in MLM without NADPH,"[8]; without NADPH, >60 min, listed as KIM-161",Unchanged >60 min
